From patent US20250243174A1, “ANTITUMORAL COMPOUNDS” (PHARMA MAR, S.A., priority 2021, published 2025)

Experiments:
MDA-MB-231 = test: SRB colorimetric cytotoxicity assay, MDA-MB-231; assay type: cell-based; settings: Homo sapiens, MDA-MB-231, 72 h, read-out: GI50 (M) MDA-MB-231
From the text: (§1) The aim of this assay is to evaluate the in vitro cytostatic (ability to delay or arrest tumor cell growth) or cytotoxic (ability to kill tumor cells) activity of the samples being tested.
(§2) A colorimetric assay, using sulforhodamine B (SRB) reaction has been adapted to provide a quantitative measurement of cell growth and viability (using the technique developed by Skehan et al., J. Natl. Cancer Inst. 1990 and following the protocol detailed in V. Vichai and K. Kirtikara (2006) Nature Protoc. 1, 1112-1116.)
(§3) This form of assay employs 96-well cell culture microplates. All the cell lines used in this study were obtained from the American Type Culture Collection (ATCC), unless otherwise indicated, and derive from different types of human cancer.
(§4) Cells were maintained in Dulbecco's Modified Eagle Medium (DMEM) (for A549, HT-29 and MDA-MB-231) or RPMI (for PSN-1) supplemented with 10% Fetal Bovine Serum (FBS), 2 mM L-glutamine, 100 U/mL penicillin and 100 U/mL streptomycin at 37° C., 5% CO2 and 98% humidity. For the experiments, cells were harvested from subconfluent cultures using trypsinization and resuspended in fresh medium before counting and plating.
(§5) Cells were seeded in 96 well microtiter plates, at 5×10^3 cells per well in aliquots of 150 μL, and allowed to attach to the plate surface for 18 hours (overnight) in drug free medium. After that, one control (untreated) plate of each cell line was fixed (as described below) and used for time zero reference value. Culture plates were then treated with test compounds (50 μL aliquots of 4× concentrated compound stock solutions made in complete culture medium) using ten serial dilutions (concentrations ranging from […]) and triplicate cultures (final concentration of DMSO being 1%). After 72 hours treatment, the antitumor effect was measured by using the SRB methodology: Briefly, cells were washed twice with PBS, fixed for 15 min in 1% glutaraldehyde solution at room temperature, rinsed twice in PBS, and stained in 0.4% SRB solution for 30 min at room temperature. Cells were then rinsed several times with 1% acetic acid solution and air-dried at room temperature. SRB was then extracted in 10 mM trizma base solution and the absorbance measured in an automated spectrophotometric plate reader at 490 nm. Effects on cell growth and survival were estimated by applying the NCI algorithm (Boyd M R and Paull K D. Drug Dev. Res. 1995, 34, 91-104).
(§6) Using the mean±SD of triplicates, a dose-response curve was automatically generated using nonlinear regression analysis to a 4-parameter logistic curve. Three reference parameters were calculated (NCI algorithm) by automatic interpolation: GI50=compound concentration that produces […] cell growth inhibition, as compared to control cultures.

H460 xenografts = test: Comparative Example, in vivo H460 xenograft (PM050489); design: species or system mice; settings: 0.08 mg/kg iv
Description: H460 cells were maintained in vitro at 37° C. with 5% CO2 in Dulbecco's Modified Eagle's Medium (Sigma-Aldrich, Co). Culture cells were passaged every 3 to 5 days upon reaching confluence. Each animal was subcutaneously implanted (on the right flank using 26G needle and a 1 cc syringe) at 4-6 weeks of age with 5×10^6 H460 cells suspended in 0.05 mL of a solution consisting of 50% Matrigel (Corning Incorporated Life Sciences) and 50% medium without serum or antibiotics.
Antitumor activity of PM050489 was evaluated in one human tumor model, NSCLC (H460) xenografted in immunodepressed mice. All treatments were intravenously administered at their MTD.
When tumors reached ca. 150-200 mm^3, tumor bearing animals (N=10/group) were randomly allocated into the following treatment groups: • PM050489 (0.08 mg/kg) • Placebo
Treatments were intravenously administered once per week for 2 consecutive weeks (days 0 and 7).
Tumor dimensions and body weights were recorded 3 times per week starting from the first day of treatment (Day 0). Treatments producing >20% lethality and/or 20% net body weight loss were considered toxic. Tumor volume was calculated using the equation (a·b^2)/2, where a and b were the longest and shortest diameters, respectively. Animals were euthanized when their tumors reached ca. 2,000 mm^3 and/or severe necrosis was seen. Median, mean and SD were calculated for tumor volume on each measurement day.
Antitumor effect was calculated by using ΔT/ΔC (%) and tumor growth delay (TGD). ΔT/ΔC was defined as a percentage of the change in tumor volume for each treated (T) and placebo (C) group. ΔT/ΔC was calculated immediately before the 2nd dose and on the 4th week of the study. TGD was expressed as a percentage by which the treated group volume was delayed and calculated by applying [(Dt−Dc)/Dc]100, where […] were the median times in days for treated and control groups in attaining a specified volume, fixed as 1,000 mm^3.
Treatment tolerability was assessed by monitoring body weight evolution, clinical signs as well as evidences of local damage in the injection site.

[1] = MTD (Maximum Tolerated Dose) determination; settings: Athymic Nude-Fox1 nu/nu, mouse, in vivo; iv, single dose; female athymic nude mice
Description: (§7) Female Athymic Nude-Fox1 nu/nu mice (Envigo) were utilized for all experiments. Animals (N=10/cage) were housed in individually ventilated cages (Sealsafe Plus®, Techniplast S.P.A.), on a 12-hour light-dark cycle at 21-23° C. and 40-60% humidity. Mice were allowed free access to irradiated standard rodent diet (Tecklad 2914C) and sterilized water. Animals were acclimated for five days prior to being individually tattoo-identified. Animal protocols were reviewed and approved according to the regional Institutional Animal Care and Use Committees.
(§8) Mice were randomly allocated into experimental groups and intravenously administered, once for the MTD (Maximum Tolerated Dose) determination or one administration a week during three consecutive weeks, for the MTMD (Maximum Tolerated Multiple Dose) determination study. The animals were administered with white formulation or with compound dissolved in the experimental formulation at different concentrations. The volume administered was always 10 mL/kg. Once administered, animals were monitored for clinical signs of systemic toxicity, changes in body weight and mortality up to 14 days after the administration.

HT29 = test: SRB colorimetric cytotoxicity assay, HT29; assay type: cell-based; settings: Homo sapiens, HT-29, 72 h, read-out: GI50 (M) HT29
From the text: as §1, §2, §3, §4, §5, §6

A549 = test: SRB colorimetric cytotoxicity assay, A549; assay type: cell-based; settings: Homo sapiens, A549, 72 h, read-out: GI50 (M) A549
From the text: as §1, §2, §3, §4, §5, §6

[2] = MTMD (Maximum Tolerated Multiple Dose) determination; assay type: in vivo; settings: iv, Q7dx3; female athymic nude mice
Description: as §7, §8

PSN-1 = test: SRB colorimetric cytotoxicity assay, PSN-1; assay type: cell-based; settings: Homo sapiens, PSN1, 72 h, read-out: GI50 (M) PSN-1
From the text: as §1, §2, §3, §4, §5, §6

COC1=CC[C@@H]([C@@H](C)/C=C(C)/C=C\C=C/C(=O)N[C@H](C(=O)N/C=C\C[C@H](C/C=C(\C)Cl)OC(N)=O)C(C)(C)C)OC1=O [PM050489, reference compound]
GI50 (MDA-MB-231): 1.37e-10 M | treatment tolerability (H460 xenografts): prematurely finished because of severe necrosis in the tumor masses and/or decreases in body weight values | ΔT/ΔC (%) Day 7 (H460 xenografts; days 0 and 7, Day 7): 103.5% | TGD (%) (H460 xenografts; tumor growth delay, target volume 1,000 mm^3): 40.0% | MTD at 14 days [1]: 0.075 mg/kg | GI50 (HT29): 3.91e-11 M | GI50 (A549): 8.59e-11 M | MTMD [2]: 0.075 mg/kg | GI50 (PSN-1): 1.9e-10 M
